Two compounds from US20260250312A1, “ANTIBACTERIAL COMPOUNDS ELIMINATING DORMANT BACTERIAL CELLS” (UNIVERSITÉ D'AIX-MARSEILLE, priority 2022, published 2026) can be followed below.

Data set [1] has as its system E. coli non-persister cells. As to the kind of experiment: Anti-persister activity test, non-persister cells. The format is cell-based, Escherichia coli. The following applies: Escherichia coli, 4 h, read-out: Non-persister cell survival rate 96 h, concentration used 62.5 μM, 4 hours treatment. As for the experimental part:
(§1) Anti-persister activity test: Escherichia coli (E. coli) persister cells were generated and isolated as described by MARQUES, C. N. H. et al. (Applied and Environmental Microbiology 2014, Vol. 80, No. 22, pp. 6976-6991). E. coli persister cells were compared to E. coli non-persister cells. 1 mL persister or non-persister bacteria culture was added in a 1.5 mL microtube with each of the compounds to be tested or ciprofloxacin as a […], and incubated at 37° C. with 160 rpm shaking for 4 hours. After 4 hours treatment with the compounds, the microtubes were centrifuged at 3,500g for 5 minutes and the pellets were resuspended in 1 mL of fresh drug free RM broth (10 g/L M9 salt, 2% casamino acids, 1 mM MgCl2, 1% glycerol). Resuspended bacteria were then plated over LB agar plates and incubated at 37° C. Bacterial colonies were enumerated after 24, 48 and 96 hours to estimate the survival rate.

Data set [2] relates to Staphylococcus aureus (ATCC25923). Put plainly: Microdilution MIC assay (CLSI-based), S. aureus. The format is cell-based. The following applies: Staphylococcus aureus, ATCC25923, 20 h, 20 hours incubation at 35-37° C., MHB; read-out: Minimum inhibitory concentration S. aureus ATCC25923. Put shortly: (§2)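 Broth microdilution per modified CLSI guidelines in Mueller Hinton broth, 200 μL, inoculum ca. 5×10^5 CFU/mL; compounds tested as salts, twofold dilutions from 0.2 mg/mL, in triplicate. MIC determined from OD at 620 nm after incubation.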

Data set [3] has as its system Pseudomonas aeruginosa (ATCC27853). As to the kind of experiment: Microdilution MIC assay (CLSI-based), P. aeruginosa. The format is cell-based. The following applies: Pseudomonas aeruginosa, ATCC27853, 20 h, 20 hours incubation at 35-37° C., MHB; read-out: Minimum inhibitory concentration P. aeruginosa ATCC27853. Put shortly: as §2
For a further data set, the system named is CHO-K1 cells. As to the kind of experiment: WST1 cytotoxicity test. The following applies: for IC50: Cricetulus griseus. The format is cell-based, Chinese hamster. Put shortly: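 CHO-K1 cells pre-cultured 24 h, then exposed 24 h at 37 °C to increasing compound concentrations. Viability read as WST-1 formazan absorbance at 450 nm after 20 min; dose-response fitted by nonlinear regression.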

Data set [4] deals with Escherichia coli (ATCC28922). Put plainly: Microdilution MIC assay (CLSI-based), E. coli. The format is cell-based. The following applies: Escherichia coli, ATCC28922, 20 h, 20 hours incubation at 35-37° C., MHB; read-out: Minimum inhibitory concentration E. coli ATCC28922. Put shortly: as §2
In data set [5] the test system is Escherichia coli (E. coli) persister cells. Put plainly: Anti-persister activity test, persister cells. Format: cell-based. The following applies: for anti-persister activity (in words): E. coli persister cells, Table 8 conditions; for viability at 62.5 µM: Escherichia coli, 4 h, read-out: Persister cell survival rate 96 h, concentration used 62.5 μM, 4 hours treatment. As for the experimental part:
as §1

Data set [6] deals with Enterococcus faecalis (ATCC29212). Put plainly: Microdilution MIC assay (CLSI-based), E. faecalis. The format is cell-based. As to conditions: Enterococcus faecalis, ATCC29212, 20 h, 20 hours incubation at 35-37° C., MHB; read-out: Minimum inhibitory concentration E. faecalis ATCC29212. Put shortly:
as §2

Setting [7] is: CHO-K1, 24 h, WST1, 24 hours at 37° C., read-out: IC50 CHO.
[8] abbreviates: CHO-K1, WST1, as printed in Table 8, read-out: Toxicity IC50 CHO.

Several values for one entry are separate records, joined by “and”; a condition that tells them apart may be missing. Identical values can stand only once. Like-named read-outs stand apart in the source and are kept apart here.

In the case of `CC[C@@H](C)[C@H](NC(=O)CC[C@@H](C)[C@H]1CC[C@H]2[C@@H]3[C@H](O)C[C@@H]4C[C@@H](NCCCNCCCCNCCCN)CC[C@]4(C)[C@H]3CC[C@]12C)C(=O)OC` [Compound S044, methyl (2S,3R)-2-((4R)-4-((3S,5S,7R,10S,13R,17R)-3-((3-((4-((3-aminopropyl)amino)butyl)amino)propyl)amino)-7-hydroxy-10,13-dimethylhexadecahydro-1H-cyclopenta[a]phenanthren-17-yl)pentanamido)-3-methylpentanoate], the viability at 62.5 µM in data set [1] and in data set [5] was 0% each time. For the same compound, the MIC is 6.25 µM and 4 µg/mL in data set [2]; 12.5 µM and 8 µg/mL in data set [3]; 6.25 µM and 4 µg/mL in data set [4]; 6.25 µM and 4 µg/mL in data set [6]. Moreover, the “toxicity results (in words)” value in the data set on CHO-K1 cells was “good toxicity results”. In addition, the IC50 was 52.4 µM and 36.9 µg/mL in the data set on CHO-K1 cells (setting [7]); 52.4 µM in the data set with CHO-K1 cells (setting [8]). The “anti-persister activity (in words)” value in data set [5] is “both anti-persister and anti-bacterial activities”.
`COC(=O)[C@H](Cc1ccc(O)cc1)NC(=O)CC[C@@H](C)[C@H]1CCC2C3C(CC[C@@]21C)[C@@]1(C)CC[C@H](NCCCNCCCCNCCCN)C[C@H]1C[C@H]3O` (stereo partly drawn) [Compound S039, methyl ((4R)-4-((3S,5S,7R,10S,13R,17R)-3-((3-((4-((3-aminopropyl)amino)butyl)amino)propyl)amino)-7-hydroxy-10,13-dimethylhexadecahydro-1H-cyclopenta[a]phenanthren-17-yl)pentanoyl)-L-tyrosinate]: the viability at 62.5 µM was found to be 2.7% in data set [1] and 0% in data set [5]. The MIC was 6.25 µM and 4 µg/mL in data set [2]; 6.25 µM and 4 µg/mL in data set [3]; 6.25 µM and 4 µg/mL in data set [4]; 12.5 µM and 8 µg/mL in data set [6]. The “toxicity results (in words)” value in the data set with CHO-K1 cells was “good toxicity results”. Also, the IC50 in the data set with CHO-K1 cells (setting [7]) is 60 µM and 45.3 µg/mL; in the data set on CHO-K1 cells (setting [8]), 60 µM. Further, the “anti-persister activity (in words)” value in data set [5] is “very potent anti-persister activity”.
